Molecules are shown by their SMILES.

For the test, the target named is T1, human factor Xa (Homo sapiens, UniProt P00742).
T1 construct: 25 μl human factor Xa (Enzyme Research Laboratories, Inc; South Bend, Ind.) in TBS-PEG; purchased Enzyme Research Laboratories, Inc; South Bend, Ind
T1 sequence (P00742 235-488 limits assumed): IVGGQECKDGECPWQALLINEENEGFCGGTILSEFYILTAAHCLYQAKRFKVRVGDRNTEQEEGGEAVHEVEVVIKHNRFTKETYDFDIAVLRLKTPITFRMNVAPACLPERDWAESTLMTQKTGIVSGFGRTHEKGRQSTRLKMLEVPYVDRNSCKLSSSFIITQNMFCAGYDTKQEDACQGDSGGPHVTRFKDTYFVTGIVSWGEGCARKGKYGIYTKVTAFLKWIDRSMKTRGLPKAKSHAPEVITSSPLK
T1 sequence (P00742 41-179 partner limits assumed): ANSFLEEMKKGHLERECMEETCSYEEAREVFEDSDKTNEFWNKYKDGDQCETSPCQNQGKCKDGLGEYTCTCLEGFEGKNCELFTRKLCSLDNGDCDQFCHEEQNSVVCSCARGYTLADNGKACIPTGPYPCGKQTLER
As to the kind of experiment: Factor Xa assay (chromogenic, substrate S-2765). The format is biochemical. The following applies: inhibition constant for inhibition of factor Xa; IC50 corrected for substrate competition; 0.5 nM enzyme, 140 μM S-2765, 25° C., pH 7.8; read-out: Ki(FXa). As for the experimental part:
The ability of the compounds of the formula I to inhibit factor Xa or factor VIIa or other enzymes like thrombin, plasmin, or trypsin can be assessed by determining the concentration of the compound of the formula I that inhibits enzyme activity by 50%, i. e. the IC50 value, which was related to the inhibition constant Ki. Purified enzymes were used in chromogenic assays. The concentration of inhibitor that causes a 50% decrease in the rate of substrate hydrolysis was determined by linear regression after plotting the relative rates of hydrolysis (compared to the uninhibited control) versus the log of the concentration of the compound of formula I. For calculating the inhibition constant Ki, the IC50 value was corrected for competition with substrate using the formula Ki=IC50/{1+(substrate concentration/Km)} wherein Km is the Michaelis-Menten constant (Chen and Prusoff, Biochem. Pharmacol. 22 (1973), 3099-3108; I. H. Segal, Enzyme Kinetics, 1975, John Wiley & Sons, New York, 100-125; which were incorporated herein by reference). a) Factor Xa Assay
In the assay for determining the inhibition of factor Xa activity TBS-PEG buffer (50 mM Tris-HCl, pH 7.8, 200 mM NaCl, 0.05% (w/v) PEG-8000, 0.02% (w/v) NaN3) was used. The IC50 was determined by combining in appropriate wells of a Costar half-area microtiter plate 25 μl human factor Xa (Enzyme Research Laboratories, Inc.; South Bend, Ind.) in TBS-PEG; 40 μl 10% (v/v) DMSO in TBS-PEG (uninhibited control) or various concentrations of the compound to be tested diluted in 10% (v/v) DMSO in TBS-PEG; and substrate S-2765 (N(α)-benzyloxycarbonyl-D-Arg-Gly-L-Arg-p-nitroanilide; Kabi Pharmacia, Inc.; Franklin, Ohio) in TBS-PEG.
The assay was performed by pre-incubating the compound of formula I plus enzyme for 10 min. Then the assay was initiated by adding substrate to obtain a final volume of 100 μl. The initial velocity of chromogenic substrate hydrolysis was measured by the change in absorbance at 405 nm using a Biotek Instruments kinetic plate reader (Ceres UV900HDi) at 25° C. during the linear portion of the time course (usually 1.5 min after addition of substrate). The enzyme concentration was 0.5 nM and substrate concentration was 140 μM.
In general, Ki refers to the dissociation constant of the complex between target and ligand, obtained from inhibition or displacement. For `CC(C)N1CCC(NC(=O)c2cc3cccnc3n2Cc2cc(-c3ccc(Cl)s3)on2)CC1` [Example 1, 1-[5-(5-Chloro-thiophen-2-yl)-isoxazol-3-ylmethyl]-1H-pyrrolo[2,3-b]pyridine-2-carboxylic acid (1-isopropyl-piperidin-4-yl)-amide], the Ki was determined as 6 nM.
Take `COC(=O)c1cnc2c(c1)cc(C(=O)NC1CCN(C(C)C)CC1)n2Cc1cc(-c2ccc(Cl)s2)on1` [Example 2, 1-[5-(5-Chloro-thiophen-2-yl)-isoxazol-3-ylmethyl]-2-(1-isopropyl-piperidin-4-ylcarbamoyl)-1H-pyrrolo[2,3-b]pyridine-5-carboxylic acid methyl ester]: the Ki was determined as 55 nM.
Consider `CC(C)N1CCC(NC(=O)c2cc3cc(C(=O)O)cnc3n2Cc2cc(-c3ccc(Cl)s3)on2)CC1` [Example 3, 1-[5-(5-Chloro-thiophen-2-yl)-isoxazol-3-ylmethyl]-2-(1-isopropyl-piperidin-4-ylcarbamoyl)-1H-pyrrolo[2,3-b]pyridine-5-carboxylic acid], for which the Ki is 67 nM.
`CC(C)N1CCC(NC(=O)c2cc3cc(C(N)=O)cnc3n2Cc2cc(-c3ccc(Cl)s3)on2)CC1` [Example 4, 1-[5-(5-Chloro-thiophen-2-yl)-isoxazol-3-ylmethyl]-1H-pyrrolo[2,3-b]pyridine-2,5-dicarboxylic acid 5-amide 2-[(1-isopropyl-piperidin-4-yl)-amide]]: the Ki came out at 70 nM.
On to `CC(C)N1CCC(NC(=O)c2cc3ncccc3n2Cc2cc(-c3ccc(Cl)s3)on2)CC1` [Example 5, 1-[5-(5-Chloro-thiophen-2-yl)-isoxazol-3-ylmethyl]-1H-pyrrolo[3,2-b]pyridine-2-carboxylic acid (1-isopropyl-piperidin-4-yl)-amide], for which the inhibition constant Ki was 4 nM.
With `CC(C)N1CCC(NC(=O)c2cc3nc(C(=O)O)ccc3n2Cc2cc(-c3ccc(Cl)s3)on2)CC1` [Example 6, 1-[5-(5-Chloro-thiophen-2-yl)-isoxazol-3-ylmethyl]-2-(1-isopropyl-piperidin-4-ylcarbamoyl)-1H-pyrrolo[3,2-b]pyridine-5-carboxylic acid], the inhibition constant (Ki) was 10 nM.
Turning to `CC(C)N1CCC(NC(=O)c2cc3[nH]c(=O)ccc3n2Cc2cc(-c3ccc(Cl)s3)on2)CC1` [Example 7, 1-[5-(5-Chloro-thiophen-2-yl)-isoxazol-3-ylmethyl]-5-oxo-4,5-dihydro-1H-pyrrolo[3,2-b]pyridine-2-carboxylic acid (1-isopropyl-piperidin-4-yl)-amide], the inhibition constant Ki worked out at 23 nM.
On to `O=C(O)c1ccc2c(cc(C(=O)NC3CCN(c4ccncc4)CC3)n2Cc2cc(-c3ccc(Cl)s3)on2)n1` [Example 9, 1-[5-(5-Chloro-thiophen-2-yl)-isoxazol-3-ylmethyl]-2-(3,4,5,6-tetrahydro-2H-[1,4′]bipyridyl-4-ylcarbamoyl)-1H-pyrrolo[3,2-b]pyridine-5-carboxylic acid], for which the inhibition constant Ki is 85 nM.
For the compound `CC(C)N1CCC(NC(=O)c2cc3cc(OCCO)ncc3n2Cc2cc(-c3ccc(Cl)s3)on2)CC1` [Example 11, 1-[5-(5-Chloro-thiophen-2-yl)-isoxazol-3-ylmethyl]-5-(2-hydroxy-ethoxy)-1H-pyrrolo[2,3-c]pyridine-2-carboxylic acid (1-isopropyl-piperidin-4-yl)-amide], the inhibition constant (Ki) came to 47 nM.
On to `CC(C)N1CCC(NC(=O)c2cc3cc(OCCO)ncc3n2CC(=O)Nc2ccc(Cl)cn2)CC1` [Example 13, 1-[(5-Chloro-pyridin-2-ylcarbamoyl)-methyl]-5-(2-hydroxy-ethoxy)-1H-pyrrolo[2,3-c]pyridine-2-carboxylic acid (1-isopropyl-piperidin-4-yl)-amide], for which the inhibition constant (Ki) is 44 nM.

The record behind these values is patent US7317027B2, “Azaindole-derivatives as factor Xa inhibitors” (Sanofi-Aventis Deutschland GmbH, priority 2003, dated 2008).
